Reference: publication PMC10384408, “Anticancer Tungstenocenes with a Diverse Set of (O,O–), (O,S–) and (O,N–) Chelates—A Detailed Biological Study Using an Improved Evaluation via 3D Spheroid Models” (Pharmaceutics, 2023)

Experiments:
[1] = system: HCT116 cells; assay: Resazurin assay, HCT116 2D monolayer; assay type: cell-based, human; settings: 96 h
Experimental: (§1) CH1/PA-1 (ovarian teratocarcinoma), SW480 (colon carcinoma) and A549 (non-small cell lung cancer) cells were maintained as described in the reference. IMR-90 human fetal lung fibroblasts (from the European Collection of Authenticated Cell Cultures, Porton Down, Salisbury, UK) were cultured in Stable Cell^TM DMEM/F12 supplemented with 0.01 mg/mL human recombinant insulin (both purchased from Sigma-Aldrich) and 10% fetal bovine serum (FBS, BioWest, Nuaillé, France). Human colon carcinoma cell lines HCT116 and HT29 (both kindly provided by the Institute of Cancer Research, Department of Medicine I, Medical University of Vienna, Austria) were cultured in McCoy’s 5a medium supplemented with 4 mM L-glutamine (both purchased from Sigma-Aldrich) and 10% FBS. MCF-7 human breast adenocarcinoma cells (kindly provided by M. Ogris, Department of Pharmaceutical Sciences, University of Vienna, Austria) were maintained in DMEM (high glucose) supplemented with 4 mM L-glutamine, 0.1 mg/mL human insulin (all purchased from Sigma-Aldrich) and 10% FBS. All cell lines were grown as monolayers in 75 cm^2 culture flasks (CytoOne, Starlab, Hamburg, Germany) at 37 °C in a humidified atmosphere containing 5% CO2.
(§2) For the resazurin assay in monolayer cultures, cells were seeded into 96-well microculture plates (CytoOne, tissue culture treated, Starlab, Hamburg, Germany) in densities of 2 × 10^3 HCT116, 2 × 10^3 HT29 and 4 × 10^3 MCF-7 cells per well (each in 100 µL). For tests in 3D cultures, spheroids were grown as described above. After 24 h (for monolayers) or 4 days (for spheroids) the test compounds in the appropriate medium were added in serial dilution to the plates to obtain a total volume of 200 µL/well. Wells without cells, containing medium and resazurin (Alfa Aesar, Thermo Fisher, Kandel, Germany) solution were used as blanks. After 96 h exposure 20 µL of the resazurin solution (440 µM) were added to each well, followed by a 4 h (2D) or 12 h (3D) incubation period. Resorufin fluorescence was quantified at 530 nm (and a reference wavelength of 620 nm) by using a microplate reader (Synergy HT, BioTek) with Gen5^TM 3.10 software (BioTek).

[2] = system: HT29 cells; assay: Resazurin assay, HT29 2D monolayer; assay type: cell-based, human; settings: 96 h
Experimental: as §1, §2

[3] = system: SW480 (colon carcinoma) cells; assay: MTT cytotoxicity assay, SW480 monolayer; assay type: cell-based, human; settings: exposure time 96 h, mean ± SD
Experimental: as §1
(§3) Exponentially growing cells were plated into 96-well microculture plates (CytoOne, tissue culture treated, Starlab, Hamburg, Germany) in densities of 1 × 10^3 CH1/PA-1, 2 × 10^3 SW480, 3 × 10^3 A549 and 7 × 10^3 IMR-90 cells per well (each in 100 µL). After a 24 h preincubation, drugs were added in serial dilution to give a final volume of 200 µL/well and exposed for 96 h. At the end of the exposure, the drug solutions were replaced by 100 µL RPMI 1640/MTT mixture (7:1 ratio). MTT (3-(4,5-dimethylthiazol-2-yl)-2,5-diphenyl-2H-tetrazolium bromide), (Acros Organics, Geel, Belgium) solution was prepared in phosphate-buffered saline (5 mg/mL) and mixed with RPMI1640 medium supplemented with 4 mM L-glutamine (both from Sigma-Aldrich) and 10% FBS. After 4 h incubation, the formazan crystals were solubilized in 150 µL of DMSO per well. Absorbance was measured at 550 nm (and at 690 nm as a reference) with a microplate reader (ELx808, BioTek, Winoosky, VT, USA) and Gen5^TM 3.08 software (BioTek). The 50% inhibitory concentrations (IC50) relative to untreated controls were interpolated from concentration-effect curves. At least three biologically and technically independent experiments were performed.

[4] = system: MCF-7 cells; assay: Resazurin assay, MCF-7 2D monolayer; assay type: cell-based, human; settings: 96 h
Experimental: as §1, §2

[5] = system: MCF-7 cells; assay: Annexin V-FITC/PI apoptosis assay, MCF-7; settings: MCF-7, 24 h, 200 µM; for ∑apoptotic cells [%]: sum of early and late
[6] = Solubility in PBS (1% DMSO); assay type: physicochemical
Experimental: Stock solutions in DMSO of compounds 1–10 were utilized to determine the solubility in PBS by adding 1 vol% of the stock solution to a suitable amount of PBS. […] UV/Vis data were recorded on a Perkin Elmer Lambda 650 UV/Vis Spectrophotometer with a Peltier element for temperature control.

[7] = system: MCF-7 multicellular tumor spheroids; assay: Resazurin assay, MCF-7 3D spheroids; assay type: cell-based, human; settings: 96 h; for IC50: spheroids
Experimental: as §1
(§4) For growing multicellular tumor spheroids, 400 HCT116, 400 HT29 or 800 MCF-7 cells per well were plated into round-bottom ultra-low attachment 96-well plates (Corning, Glendale, AZ, USA) in the media described above and incubated at 37 °C for 96 h. Spheroids were treated with 10 µM of the two most cytotoxic compounds 3 and 4 for another 96 h. The diameters of the spheroids were measured with Cell^F software under a CKX41 Olympus microscope before treatment and in constant daily intervals over the 96 h treatment period. For statistical analysis the t-test with Welsh’s correction was implemented in GraphPad Prism software (Version 6.01).
as §2

[8] = system: CH1/PA-1 (ovarian teratocarcinoma) cells; assay: MTT cytotoxicity assay, CH1/PA-1 monolayer; assay type: cell-based, human; settings: exposure time 96 h, mean ± SD
Experimental: as §1, §3

[9] = system: HT29 cells; assay: Annexin V-FITC/PI apoptosis assay, HT29; settings: HT29, 24 h, 200 µM; for ∑apoptotic cells [%]: sum of early and late
[10] = system: HT29 multicellular tumor spheroids; assay: Resazurin assay, HT29 3D spheroids; assay type: cell-based, human; settings: 96 h; for IC50: spheroids
Experimental: as §1, §4, §2

SMILES | IC50 [1] [µM] | IC50 [2] [µM] | IC50 [3] [µM] | IC50 [4] [µM] | early apoptotic cells [%] AV+ / PI- [5] [%] | late apoptotic cells [%] AV+ / PI+ [5] [%] | necrotic cells [%] AV- / PI+ [5] [%] | viable cells [%] AV- / PI- [5] [%] | ∑apoptotic cells [%] [5] [%] | Solubility in PBS (1% DMSO) [6] [µg/mL] | IC50 [7] [µM] | IC50 [8] [µM] | early apoptotic cells [%] AV+ / PI- [9] [%] | late apoptotic cells [%] AV+ / PI+ [9] [%] | necrotic cells [%] AV- / PI+ [9] [%] | viable cells [%] AV- / PI- [9] [%] | ∑apoptotic cells [%] [9] [%] | IC50 [10] [µM] | ratio 3D/2D of IC50 values, MCF-7 [7] | ratio 3D/2D of IC50 values, HT29 [10]
Cc1c([O-])c(=O)ccn1C.F[P-](F)(F)(F)(F)F.[W+4].c1cc[cH-]c1.c1cc[cH-]c1 [Compound 6, Bis(η^5-cyclopentadienyl)[1,2-dimethyl-3-(oxo-κO)-4-(1H)-pyridonato-κO]tungsten(IV) hexafluorophosphate] | > 200 | > 200 | 154 ± 29 | 172 ± 45 | 1.4 ± 0.8 | 3.6 ± 1.5 | 2.1 ± 0.5 | 92.8 ± 2.2 | 5.1 | 1200 | > 200 | > 200 | 4.3 ± 1.8 | 4.2 ± 0.6 | 2.4 ± 0.7 | 89.1 ± 0.4 | 8.5 | > 200 |  | 
Cc1cc(=O)c([O-])co1.F[P-](F)(F)(F)(F)F.[W+4].c1cc[cH-]c1.c1cc[cH-]c1 [Compound 7, Bis(η^5-cyclopentadienyl)[2-methyl-5-(oxo-κO)-4-(1H)-pyran-4-ato-κO] tungsten(IV) hexafluorophosphate] | > 200 | > 200 | > 200 | > 200 | 1.3 ± 0.4 | 8.1 ± 5.5 | 3.2 ± 1.2 | 87.4 ± 6.6 | 9.4 | 350 | > 200 | 152 ± 16 | 3.0 ± 1.6 | 5.5 ± 1.9 | 3.1 ± 2.3 | 88.4 ± 3.8 | 8.5 | > 200 |  | 
Cc1cc(=S)c([O-])co1.F[P-](F)(F)(F)(F)F.[W+4].c1cc[cH-]c1.c1cc[cH-]c1 [Compound 8, Bis(η^5-cyclopentadienyl)[2-methyl-5-(oxo-κO)-pyran-4-(1H)-thionato-κS] tungsten(IV) hexafluorophosphate] | > 200 | > 200 | 129 ± 14 | 163 ± 32 | 1.2 ± 0.3 | 8.7 ± 6.9 | 2.7 ± 1.4 | 87.3 ± 8.3 | 9.9 | 410 | > 200 | 93 ± 15 | 3.3 ± 2.1 | 6.2 ± 4.1 | 2.1 ± 0.9 | 88.4 ± 3.6 | 9.5 | > 200 |  | 
CCc1occc(=O)c1[O-].F[P-](F)(F)(F)(F)F.[W+4].c1cc[cH-]c1.c1cc[cH-]c1 [Compound 9, Bis(η^5-cyclopentadienyl)[2-ethyl-3-(oxo-κO)-4-(1H)-pyran-4-ato-κO] tungsten(IV) hexafluorophosphate] | > 200 | > 200 | 101 ± 15 | 147 ± 15 | 1.6 ± 1.0 | 8.4 ± 5.5 | 2.9 ± 1.8 | 87.2 ± 7.2 |  | 550 | > 200 | > 200 | 0.9 ± 0.6 | 3.9 ± 4.5 | 2.3 ± 1.3 | 92.9 ± 5.8 | 4.8 | > 200 |  | 
CCc1occc(=S)c1[O-].F[P-](F)(F)(F)(F)F.[W+4].c1cc[cH-]c1.c1cc[cH-]c1 [Compound 10, Bis(η^5-cyclopentadienyl)[2-ethyl-3-(oxo-κO)-4-(1H)-pyran-4-thionato-κS] tungsten(IV) hexafluorophosphate] | 42 ± 3 | 54 ± 2 | 13 ± 1 | 29 ± 4 | 5.5 ± 3.2 | 46.3 ± 3.2 | 32.4 ± 12.3 | 15.7 ± 6.0 |  | 320 | > 200 | 21 ± 1 | 3.1 ± 2.8 | 5.1 ± 5.2 | 2.3 ± 0.9 | 89.5 ± 8.5 | 8.2 | > 200 | > 6.9 | > 3.7
